Results from patent US10759835B2, “Monomeric streptavidin mutants, methods of using the same and processes of manufacturing proteins” (The Research Foundation for The State University of New York, priority 2016, dated 2020).

Experiment: Fluorescence polarization spectroscopy, biotin dissociation rate (koff)
Type: binding
Conditions: 37° C.
Protocol: FIG. 4. In vitro characterization of purified mSA mutants. a) Stability of mSA-RF and mSA-RWT in PBS was measured by circular dichroism spectroscopy with or without biotin. b) Fluorescence polarization spectroscopy was used to measure the dissociation rate of biotin-fluorescein. The dissociation rate, koff, was computed by fitting normalized fluorescence polarization data, or bound fraction f, to an exponentially decaying function, i.e. ƒ=e^−k^off^*t The measurements were taken at 37° C. c) The equilibrium affinity of binding Kd between mSA-RF and biotin-fluorescein was measured by FP. d) mSA-S25H and mSA-RF were analyzed by size exclusion chromatography to estimate their molecular weights in solution. […]
The binding of biotinylated fluorescein (bf, AnaSpec) was measured using a microplate reader (SpectraMax® i3 Microplate reader from Molecular Devices) in flat bottom 96 well plates (Sterilin Ltd). […] After overnight incubation at room temperature, the fluorescence polarization values were measured and fit to the quadratic binding equation (Hsu and Park, 2010, J Mol Graph Model, 29, 295-308). […] To observe dissociation of bf, excess free biotin was added to a final concentration of 100 μM and recording of fluorescence was started immediately. The intensity of polarized fluorescence was measured at various time points and normalized with respect to the value at t=0 min. […]

**Q.** Which “t1/2” value (dissociation half-life t1/2=0.693/koff, biotin-fluorescein) does the source give for “Wt SA: wild type streptavidin, tetrameric, SEQ ID NO: 20 [reference compound]” here?
**A.** 12.5 ± 4.35 h

**Q.** And the “Koff(×10^−3 min^−1)” value (dissociation of biotin-fluorescein, excess free biotin 100 μM)?
**A.** 0.923 ± 0.0253 ×10^−3 min^−1
